Literature values as cited in publication PMC9460038, “Antigiardial Activity of Foeniculum vulgare Hexane Extract and Some of Its Constituents” (Plants, 2022).

Tested on: multidrug resistant (MDR) clinical isolates of Mycobacterium tuberculosis
Settings: three MDR clinical isolates; cited from earlier work

For `CCCCCC/C=C/C=C/C=O` [Trans, trans-2,4-undecadienal, trans, trans-2,4-undecadienal], the MIC is given as 25 to 50 µg/mL.
